Measurements from PubChem BioAssay AID200 (DTP/NCI, 2004).
Values joined by “and” are separate entries in the source; they are usually repeats but may differ in a detail not shown here. Identical values can stand only once. Inconclusive results and toxic doses are left out.

Test system: B6C3F1 mice, B16 melanoma ip, median survival T/C
Test: NCI In Vivo Anticancer Drug Screen. Data for tumor model B16 Melanoma (intraperitoneal) in B6C3F1 mice
Settings: endpoint: median survival time, higher = longer survival
Method in brief: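 Values are T/C ratios: the measurement in treated animals divided by that in vehicle-treated controls, using survival or tumor size in mice carrying transplantable tumors.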

[1] = dose: 12.5 mg/kg/injection, schedule: Q01DX009 (ip), vehicle: saline with Tween-80
[2] = dose: 25.0 mg/kg/injection, schedule: Q01DX009 (ip), vehicle: saline with Tween-80
[3] = dose: 50.0 mg/kg/injection, schedule: Q01DX009 (ip), vehicle: saline with Tween-80
[4] = dose: 100.0 mg/kg/injection, schedule: Q01DX009 (ip), vehicle: saline with Tween-80
[5] = dose: 200.0 mg/kg/injection, schedule: Q01DX009 (ip), vehicle: saline with Tween-80
[6] = dose: 12.5 mg/kg/injection, schedule: Q01DX009 (ip), vehicle: saline
[7] = dose: 25.0 mg/kg/injection, schedule: Q01DX009 (ip), vehicle: saline
[8] = dose: 3.12 mg/kg/injection, schedule: Q01DX009 (ip), vehicle: saline with Tween-80
[9] = dose: 6.25 mg/kg/injection, schedule: Q01DX009 (ip), vehicle: saline with Tween-80
[10] = dose: 400.0 mg/kg/injection, schedule: Q01DX009 (ip), vehicle: saline with Tween-80
[11] = dose: 50.0 mg/kg/injection, schedule: Q01DX009 (ip), vehicle: saline
[12] = dose: 100.0 mg/kg/injection, schedule: Q01DX009 (ip), vehicle: saline
[13] = dose: 200.0 mg/kg/injection, schedule: Q01DX009 (ip), vehicle: saline
[14] = dose: 25.0 mg/kg/injection, schedule: Q01DX009 (ip), vehicle: Klucel (hydroxypropylcellulose) (HPC)
[15] = dose: 12.5 mg/kg/injection, schedule: Q01DX009 (ip), vehicle: Klucel (hydroxypropylcellulose) (HPC)
[16] = dose: 50.0 mg/kg/injection, schedule: Q01DX009 (ip), vehicle: Klucel (hydroxypropylcellulose) (HPC)
[17] = dose: 100.0 mg/kg/injection, schedule: Q01DX009 (ip), vehicle: Klucel (hydroxypropylcellulose) (HPC)
[18] = dose: 200.0 mg/kg/injection, schedule: Q01DX009 (ip), vehicle: Klucel (hydroxypropylcellulose) (HPC)
[19] = dose: 400.0 mg/kg/injection, schedule: Q01DX009 (ip), vehicle: Klucel (hydroxypropylcellulose) (HPC)
[20] = dose: 6.25 mg/kg/injection, schedule: Q01DX009 (ip), vehicle: Klucel (hydroxypropylcellulose) (HPC)

CCN(CC)CCC(=O)c1ccccc1
T/C (dose: 3.12 mg/kg/injection, schedule: Q01DX009 (ip), vehicle: suspension in saline): 97 % of control | T/C (dose: 6.25 mg/kg/injection, schedule: Q01DX009 (ip), vehicle: suspension in saline): 98 % of control | T/C (dose: 12.5 mg/kg/injection, schedule: Q01DX009 (ip), vehicle: suspension in saline): 104 % of control | T/C (dose: 25.0 mg/kg/injection, schedule: Q01DX009 (ip), vehicle: suspension in saline): 107 % of control | T/C (dose: 50.0 mg/kg/injection, schedule: Q01DX009 (ip), vehicle: suspension in saline): 124 % of control

O=C1OCC2(C(=O)O)C(=O)OCC12 (stereo not given)
T/C [1]: 105 % of control | T/C [2]: 100 % of control | T/C [3]: 101 % of control | T/C [4]: 104 % of control | T/C [5]: 90 % of control

O=C1c2ccccc2C(=O)N1CC#CCN1C(=O)c2ccccc2C1=O
T/C (dose: 75.0 mg/kg/injection, schedule: Q01DX009 (ip), vehicle: saline with Tween-80): 108 % of control | T/C (dose: 150.0 mg/kg/injection, schedule: Q01DX009 (ip), vehicle: saline with Tween-80): 93 % of control | T/C (dose: 300.0 mg/kg/injection, schedule: Q01DX009 (ip), vehicle: saline with Tween-80): 90 % of control

CCN(CC)CCCC(C)Nc1c2ccc(C)cc2nc2ccc(OC)cc12 (stereo not given)
T/C [6]: 102 % of control | T/C [7]: 111 % of control

CCC(CC)COC(=O)c1ccccc1C(=O)OCC(CC)CC
T/C [8]: 98 % of control | T/C [9]: 97 % of control and 106 % of control | T/C [1]: 110 % of control and 90 % of control and 107 % of control | T/C [2]: 91 % of control and 96 % of control and 103 % of control | T/C [3]: 89 % of control and 96 % of control and 97 % of control | T/C [4]: 93 % of control and 97 % of control | T/C [5]: 106 % of control | T/C [10]: 104 % of control

O=C(NC(Cc1ccccc1)C(=O)O)c1ccccc1 (stereo not given)
T/C [2]: 112 % of control | T/C [3]: 112 % of control and 90 % of control | T/C [4]: 96 % of control and 100 % of control

O=C1c2ccc(Br)cc2-c2cc(Br)ccc21
T/C [9]: 98 % of control | T/C [1]: 98 % of control | T/C [2]: 93 % of control

COC1/C=C\C=C(/C)C(=O)NC2=CC(=O)C(N)=C(CC(C)CC(OC)C(O)C(C)C=C(C)C1OC(N)=O)C2=O (stereo not given)
T/C (dose: 0.75 mg/kg/injection, schedule: Q01DX009 (ip), vehicle: saline with Tween-80): 113 % of control | T/C (dose: 1.5 mg/kg/injection, schedule: Q01DX009 (ip), vehicle: saline with Tween-80): 113 % of control | T/C (dose: 3.0 mg/kg/injection, schedule: Q01DX009 (ip), vehicle: saline with Tween-80): 116 % of control

C[N+](C)(C)c1ncnc2nc[nH]c12
T/C [6]: 98 % of control | T/C [7]: 100 % of control | T/C [11]: 114 % of control and 88 % of control | T/C [12]: 93 % of control and 103 % of control | T/C [13]: 93 % of control

CCC(=O)OCC1OC(n2cnc3c(=S)nc(N)[nH]c32)C(OC(=O)CC)C1OC(=O)CC (stereo not given)
T/C [14]: 86 % of control

CS(=O)(=O)c1ncc(Br)cn1
T/C [8]: 100 % of control | T/C (dose: 3.13 mg/kg/injection, schedule: Q01DX009 (ip), vehicle: saline with Tween-80): 101 % of control | T/C [9]: 99 % of control and 105 % of control | T/C [1]: 98 % of control and 106 % of control | T/C [2]: 96 % of control and 104 % of control | T/C [3]: 109 % of control and 97 % of control | T/C [4]: 100 % of control and 104 % of control

O=c1[nH]cnc2n[nH]nc12
T/C [15]: 107 % of control | T/C [14]: 97 % of control | T/C [16]: 92 % of control | T/C [17]: 90 % of control | T/C [18]: 97 % of control | T/C [19]: 90 % of control

ClC1=C(Cl)C2(Cl)C3C(Cl)C(Cl)CC3C1(Cl)C2(Cl)Cl (stereo not given)
T/C (dose: 1.56 mg/kg/injection, schedule: Q01DX009 (ip), vehicle: saline with Tween-80): 106 % of control | T/C [8]: 98 % of control | T/C [9]: 101 % of control | T/C [1]: 97 % of control | T/C (dose: 25.0 mg/kg/injection, schedule: Q01DX009 (ip), vehicle: other): 95 % of control | T/C [2]: 87 % of control | T/C (dose: 50.0 mg/kg/injection, schedule: Q01DX009 (ip), vehicle: other): 106 % of control | T/C (dose: 100.0 mg/kg/injection, schedule: Q01DX009 (ip), vehicle: other): 97 % of control

COc1cc2c(c(OC)c1OC)-c1ccc(OC)c(=O)cc1[C@@H](NC(=O)CCl)CC2
T/C (dose: 0.12 mg/kg/injection, schedule: Q01DX009 (ip), vehicle: saline with Tween-80): 154 % of control | T/C (dose: 0.25 mg/kg/injection, schedule: Q01DX009 (ip), vehicle: saline with Tween-80): 154 % of control

Cc1cc(N/N=C/c2ccccn2)nc2ccccc12
T/C [20]: 96 % of control | T/C [15]: 94 % of control and 99 % of control | T/C [14]: 97 % of control and 98 % of control | T/C [16]: 93 % of control and 101 % of control | T/C [17]: 103 % of control and 106 % of control

COc1cc(NCc2ccc3nc(N)nc(N)c3c2C)cc(OC)c1OC
T/C (dose: 2.5 mg/kg/injection, schedule: Q01DX009 (ip), vehicle: sodium bicarbonate): 110 % of control | T/C (dose: 5.0 mg/kg/injection, schedule: Q01DX009 (ip), vehicle: sodium bicarbonate): 118 % of control | T/C (dose: 6.25 mg/kg/injection, schedule: Q01DX009 (ip), vehicle: water): 108 % of control | T/C (dose: 10.0 mg/kg/injection, schedule: Q01DX009 (ip), vehicle: sodium bicarbonate): 123 % of control | T/C (dose: 12.5 mg/kg/injection, schedule: Q01DX009 (ip), vehicle: water): 114 % of control | T/C (dose: 25.0 mg/kg/injection, schedule: Q01DX009 (ip), vehicle: water): 121 % of control

CCN(CC)CC(=O)c1ccc(O)c(O)c1
T/C [4]: 92 % of control | T/C [5]: 107 % of control | T/C [10]: 117 % of control

COc1cc(C(=O)c2cc3c(cc2C)OCO3)cc(OC)c1OC
T/C [20]: 94 % of control | T/C [15]: 100 % of control | T/C [14]: 108 % of control | T/C [16]: 117 % of control and 106 % of control

O=S(=O)(SC(S(=O)(=O)c1ccccc1)S(=O)(=O)c1ccccc1)c1ccccc1
T/C [15]: 109 % of control | T/C [14]: 115 % of control | T/C [16]: 114 % of control | T/C [17]: 107 % of control | T/C [18]: 106 % of control | T/C [19]: 98 % of control

NC(=O)CCC(NC(=O)OCC1c2ccccc2-c2ccccc21)C(=O)O (stereo not given)
T/C [17]: 98 % of control | T/C [18]: 93 % of control | T/C [19]: 94 % of control

O=NN(CCF)C(=O)NC1CCCCC1
T/C (dose: 3.12 mg/kg/injection, schedule: Q01DX009 (ip), vehicle: Klucel (hydroxypropylcellulose) (HPC)): 116 % of control | T/C [20]: 166 % of control | T/C (dose: 12.0 mg/kg/injection, schedule: Q01DX001 (ip), vehicle: Klucel (hydroxypropylcellulose) (HPC)): 121 % of control | T/C [15]: 333 % of control | T/C (dose: 25.0 mg/kg/injection, schedule: Q01DX001 (ip), vehicle: Klucel (hydroxypropylcellulose) (HPC)): 162 % of control | T/C (dose: 100.0 mg/kg/injection, schedule: Q01DX001 (ip), vehicle: Klucel (hydroxypropylcellulose) (HPC)): 216 % of control

Nc1ccc(S(=O)(=O)c2ccc(N)cc2)cc1
T/C [20]: 95 % of control | T/C [9]: 103 % of control | T/C [15]: 106 % of control | T/C [1]: 93 % of control | T/C [14]: 96 % of control | T/C [2]: 101 % of control | T/C [16]: 92 % of control | T/C [3]: 93 % of control and 100 % of control | T/C [17]: 90 % of control | T/C [4]: 87 % of control and 98 % of control | T/C [5]: 88 % of control | T/C [10]: 86 % of control

Cc1ccc(S(=O)(=O)NC(=O)OC23COCN2COC3)cc1
T/C [1]: 112 % of control and 113 % of control | T/C [2]: 108 % of control and 106 % of control | T/C [3]: 118 % of control | T/C [4]: 104 % of control | T/C [5]: 105 % of control | T/C [10]: 111 % of control and 122 % of control

CC(=O)Nc1ccc(C(O)C2=CC(=O)c3ccccc3C2=O)cc1 (stereo not given)
T/C [7]: 102 % of control | T/C [11]: 88 % of control | T/C [12]: 94 % of control

CN=S(=O)(OCCCCCOS(=O)(=NC)c1ccc(C)cc1)c1ccc(C)cc1 (stereo not given)
T/C [1]: 94 % of control | T/C [2]: 104 % of control | T/C [3]: 113 % of control | T/C [4]: 123 % of control

CCOC(=O)C1=C(C)NC(C)=C(C(=O)OCC)C1C
T/C [12]: 94 % of control | T/C [13]: 95 % of control | T/C (dose: 400.0 mg/kg/injection, schedule: Q01DX009 (ip), vehicle: saline): 91 % of control

Cc1ccccc1N(CC1CO1)CC1CO1 (stereo not given)
T/C [6]: 113 % of control | T/C [7]: 105 % of control | T/C [11]: 100 % of control | T/C [12]: 116 % of control | T/C [13]: 124 % of control

O=C(O)/C=C/C(=O)N1Cc2cc3ccccc3nc2C1
T/C [1]: 110 % of control | T/C [2]: 99 % of control | T/C [3]: 98 % of control | T/C [4]: 94 % of control | T/C [5]: 95 % of control

CC(C)(C)OC(=O)NC(CO)C(=O)O (stereo not given)
T/C [3]: 95 % of control | T/C [4]: 95 % of control | T/C [5]: 90 % of control
